Test results: article PMC12616683, “In Vivo Atlas of Neuroprotective Cyclic Dipeptides Derived from Food Gelatin Using Peptidomics and Feature-Based Molecular Networking” (Journal of Agricultural and Food Chemistry, 2025)
Peptide text beside a SMILES is read from it.

Key:
[1] = FBMN analysis of short peptides in small intestine contents and serum after oral DHG; conditions: for Peptide signal (feature intensity) in the small intestine, 30 min / Peptide signal (feature intensity) in the small intestine, 60 min / Peptide signal (feature intensity) in the small intestine, 120 min / Peptide signal (feature intensity) in the small intestine, 240 min: small intestine contents, C57 mice, FBMN feature intensity, peptides smaller than 690 Da; for Peptide signal (feature intensity) in the small intestine, 30 min: 30 min after oral DHG; for Peptide signal (feature intensity) in the small intestine, 60 min: 60 min after oral DHG; for Peptide signal (feature intensity) in the small intestine, 120 min: 120 min after oral DHG; for Peptide signal (feature intensity) in the small intestine, 240 min: 240 min after oral DHG; for time detected in serum (FBMN): time points 0.5-4 h after oral DHG
Glu-induced HT-22 cells = test: Neuroprotection in Glu-injured HT-22 cells (CCK-8 cell viability); conditions: for Cell viability(%) in Glu-induced HT-22 cells: Glu-only model (0 μM) 40.759±1.939; for cell viability in Glu-injured HT-22 cells: 50 μM (stated for cyclo(Hyp-Ala)), 4 h pretreatment, then 20 mM Glu 24 h, model group 40.759 ± 1.939%
H2O2-induced HT-22 cells = test: Neuroprotection in H2O2-injured HT-22 cells (CCK-8 cell viability); conditions: for Cell viability(%) in H2O2-induced HT-22 cells: compound 50 μM, H2O2-only model (0 μM) 48.645±0.347
[2] = Serum pharmacokinetics of CDPs after oral administration of DHG (targeted LC-MS, noncompartmental analysis); conditions: for AUC0–24h / C max / T max: serum, mice, oral DHG 1000 mg/kg

| Structure (SMILES) | Peptide signal (feature intensity) in the small intestine, 30 min [1] | Peptide signal (feature intensity) in the small intestine, 60 min [1] | Peptide signal (feature intensity) in the small intestine, 120 min [1] | Peptide signal (feature intensity) in the small intestine, 240 min [1] | Cell viability(%) in Glu-induced HT-22 cells (Glu-induced HT-22 cells; compound 25 μM) [%] | Cell viability(%) in H2O2-induced HT-22 cells (H2O2-induced HT-22 cells) [%] | AUC0–24h [2] [ng·h/mL] | C max [2] [ng/mL] | T max [2] [min] | further results |
| --- | --- | --- | --- | --- | --- | --- | --- | --- | --- | --- |
| CC(C)[C@H](NC(=O)[C@@H](N)Cc1ccc(O)cc1)C(=O)O [Tyr-Val] (H-Tyr-Val-OH) | 2.96E+06 | 1.48E+06 | 0.00E+00 | 0.00E+00 | – | – | – | – | – | – |
| CC(C)[C@H](N)C(=O)NCC(=O)N[C@H](C(=O)O)C(C)C [Val-Gly-Val] (H-Val-Gly-Val-OH) | 4.35E+07 | 3.24E+07 | 0.00E+00 | 4.99E+06 | – | – | – | – | – | – |
| CC[C@H](C)[C@H](NC(=O)[C@@H](N)C(C)C)C(=O)N[C@@H](CCCCN)C(=O)O [Val-Ile-Lys] (H-Val-Ile-Lys-OH) | 0.00E+00 | 2.02E+05 | 0.00E+00 | 4.35E+06 | – | – | – | – | – | – |
| CC(C)CC(NC(=O)C(N)C(C)C)C(=O)O (stereo not drawn) [Val-Leu] (H-Val-Leu-OH; configuration not given here) | 2.94E+06 | 3.78E+06 | 0.00E+00 | 0.00E+00 | – | – | – | – | – | – |
| CSCC[C@H](NC(=O)[C@@H](N)C(C)C)C(=O)O [Val-Met] (H-Val-Met-OH) | 3.30E+06 | 7.38E+06 | 0.00E+00 | 0.00E+00 | – | – | – | – | – | – |
| CC(C)[C@H](N)C(=O)N[C@@H](Cc1ccccc1)C(=O)O [Val-Phe] (H-Val-Phe-OH) | 1.38E+06 | 1.78E+06 | 0.00E+00 | 0.00E+00 | – | – | – | – | – | – |
| CC(C)[C@H](N)C(=O)N[C@@H](Cc1c[nH]c2ccccc12)C(=O)O [Val-Trp] (H-Val-Trp-OH) | 4.66E+05 | 4.22E+05 | 6.61E+05 | 1.64E+06 | – | – | – | – | – | – |
| CC(C)[C@H](N)C(=O)N[C@H](C(=O)O)C(C)C [Val-Val] (H-Val-Val-OH) | 5.52E+06 | 1.24E+07 | 0.00E+00 | 0.00E+00 | – | – | – | – | – | – |
| O=C1NCC(=O)N2CCC[C@@H]12 [cyclo(Gly-Pro)] | – | – | – | – | 54.865±0.079 | 53.985±7.459 | 15547.0170 | 4259.0300 | 60 | Cell viability(%) in Glu-induced HT-22 cells (Glu-induced HT-22 cells; compound 50 μM): 58.506±3.833%; time remained detectable in serum ([2]; serum/blood after oral DHG, sampled to 24 h): 12 h |
| CC1NC(=O)C2CC(O)CN2C1=O (stereo not shown) [cyclo(Hyp-Ala)] | – | – | – | – | 54.245±1.226 | – | 2561.8131 | 400.1572 | 60 | cell viability in Glu-injured HT-22 cells (Glu-induced HT-22 cells): 70.614 ± 4.85 % cell viability; cell viability in H2O2-injured HT-22 cells (H2O2-induced HT-22 cells; 50 μM, 4 h pretreatment, then 400 μM H2O2 24 h): 68.515 ± 2.290% |
| CC(C)CC1NC(=O)C2CC(O)CN2C1=O (stereo not shown) [cyclo(Hyp-Leu)] | – | – | – | – | 53.193±5.729 | 60.867±9.188 | 301.1580 | 110.4803 | 30 | Cell viability(%) in Glu-induced HT-22 cells (Glu-induced HT-22 cells; compound 50 μM): 53.590±3.417%; time detected in serum (FBMN) [1]: 0.5 to 4 h |
| CC(C)CC1NC(=O)C2CC(O)CN2C1=O [cyclo(L-Leu-L-Hyp)] | 9.23E+06 | 0.00E+00 | 5.32E+06 | 2.54E+06 | – | – | – | – | – | – |
| O=C1N[C@@H](Cc2ccccc2)C(=O)N2C[C@@H](O)C[C@@H]12 [cyclo(L-Phe-L-4-Hyp)] | 1.19E+07 | 0.00E+00 | 1.15E+07 | 6.80E+06 | – | – | – | – | – | – |
| CC(C)[C@@H]1NC(=O)[C@@H]2CCCN2C1=O [cyclo(L-Val-L-Pro)] | 3.95E+05 | 0.00E+00 | 6.03E+05 | 4.57E+05 | – | – | – | – | – | – |
| CC(C)C[C@@H]1NC(=O)[C@H](Cc2ccccc2)NC1=O [cyclo(Leu-Phe)] | – | – | – | – | – | – | – | – | – | time detected in serum (FBMN) [1]: 0.5 to 4 h |
| CC(C)CC1NC(=O)C(Cc2ccccc2)NC1=O (stereo not shown) [cyclo(Phe-Leu)] | 1.01E+05 | 0.00E+00 | 8.22E+05 | 4.33E+05 | – | – | – | – | – | – |
| O=C1N[C@@H](Cc2cnc[nH]2)C(=O)N2CCC[C@@H]12 [cyclo(Pro-His), cyclo(His-Pro)] | – | – | – | – | 52.701±4.050 | 55.307±7689 | 13.9981 | 1.9830 | 30 | Cell viability(%) in Glu-induced HT-22 cells (Glu-induced HT-22 cells; compound 50 μM): 55.361±5.121% |
| CC[C@H](C)[C@@H]1NC(=O)[C@@H]2CCCN2C1=O [cyclo(Pro-Ile)] | – | – | – | – | 58.030±5.577 | 61.087±0.749 | 71.9933 | 24.5331 | 30 | cell viability in Glu-injured HT-22 cells (Glu-induced HT-22 cells): 63.104 ± 2.519 % cell viability |
| CC(C)CC1NC(=O)C2CCCN2C1=O (stereo not shown) [cyclo(Pro-Leu)] | – | – | – | – | 52.208±0.555 | 57.413±6.700 | 176.6962 | 81.2502 | 30 | Cell viability(%) in Glu-induced HT-22 cells (Glu-induced HT-22 cells; compound 50 μM): 55.781±2.676%; time detected in serum (FBMN) [1]: 0.5 to 4 h |
| O=C1[C@@H]2CCCN2C(=O)[C@@H]2CCCN12 [cyclo(Pro-Pro)] | – | – | – | – | 57.390±2.465 | 60.084±2.807 | 487.9963 | 197.3334 | 30 | Cell viability(%) in Glu-induced HT-22 cells (Glu-induced HT-22 cells; compound 50 μM): 58.451±5.789%; time of decline / return to baseline in serum ([2]; serum after oral DHG): up to 8 h |
| CC(C)[C@@H]1NC(=O)[C@@H]2CCCN2C1=O [cyclo(Pro-Val)] | – | – | – | – | 57.390±2.314 | 60.019±9.124 | 201.4294 | 78.4401 | 30 | Cell viability(%) in Glu-induced HT-22 cells (Glu-induced HT-22 cells; compound 50 μM): 58.518±3.306%; time detected in serum (FBMN) [1]: 0.5 to 4 h |
| O=C1CNC(=O)C(Cc2ccccc2)N1 [cyclo(glycinyl-L-phenylalanine)] | 1.21E+06 | 0.00E+00 | 9.00E+05 | 4.18E+05 | – | – | – | – | – | – |
